In US6642274B1, “Methods and compositions for preventing and treating prostate disorders” (priority 1999, dated 2003):

Assays:
[1] = in vivo
Text: (§1) Szarka reviews the strategy of chemoprevention as a possible method of blocking the development of cancers in humans (C F Szarka et al “Chemoprevention of cancer” Curr Probl Cancer 1994 January-February; 18(1):6-79).

[2] = test system: cancer cell cultures; settings: cited from earlier work
[3] = test system: cancer cell cultures; experiment: Cytostatic or cytotoxic effects on cancer cell cultures; format: cell-based; settings: after hydrolysis of alpha-tocopherol succinate into alpha-tocopherol
Text: as §1

[4] = rapid hydrolysis by serum and tissue esterases into alpha-tocopherol; cited from earlier work
[5] = test system: BPH; settings: cited from earlier work
[6] = test system: 5alpha-reductase; settings: after daily dosing with 5 milligrams; cited from earlier work

| Compound | factor by which minimal target tissue concentration exceeds the maximum levels possible in oral administration [1] | concentration necessary to demonstrate cytostatic or cytotoxic effects [2] | reduction in potency relative to alpha-tocopherol succinate [3] | levels available systemically after oral administration [4] | side effects in men ([5]; oral administration) | increase in peak urinary flow rates ([5]; two large clinical studies, finasteride treatment) | reduction in serum dihydrotestosterone levels [6] |
| --- | --- | --- | --- | --- | --- | --- | --- |
| O=C1O[C@H]([C@@H](O)CO)C(O)=C1O [ascorbic acid] | 10-20 fold | 1-2 millimolar |  |  |  |  |  |
| Cc1c(C)c2c(c(C)c1O)CC[C@@](C)(CCC[C@H](C)CCC[C@H](C)CCCC(C)C)O2 [alpha-tocopherol] | 7-10 fold | 0.5 millimolar | 50 fold |  |  |  |  |
| Cc1c(C)c2c(c(C)c1OC(=O)CCC(=O)O)CC[C@@](C)(CCC[C@H](C)CCC[C@H](C)CCCC(C)C)O2 [alpha-tocopherol succinate] |  | 10 µM |  | undetectable levels |  |  |  |
| CC(C)(C)NC(=O)[C@H]1CC[C@H]2[C@@H]3CC[C@H]4NC(=O)C=C[C@]4(C)[C@H]3CC[C@]12C [finasteride] |  |  |  |  | erectile dysfunction, decreased volume of ejaculate and loss of libido | ~1.6 mls/second | 70% |
